Data from patent EP4813992A1, “POLYARYL DERIVATIVE AND USE THEREOF” (Hangzhou HealZen Therapeutics Co., Ltd., priority 2023, dated 2025).

The compounds below were run against HPK1 kinase (Homo sapiens, UniProt Q92918) (assay: Lantha screen assay, inhibitory effect on HPK1 kinase). Conditions: initial compound concentration 1 µM.
HPK1 kinase, sequence (Q92918 whole entry): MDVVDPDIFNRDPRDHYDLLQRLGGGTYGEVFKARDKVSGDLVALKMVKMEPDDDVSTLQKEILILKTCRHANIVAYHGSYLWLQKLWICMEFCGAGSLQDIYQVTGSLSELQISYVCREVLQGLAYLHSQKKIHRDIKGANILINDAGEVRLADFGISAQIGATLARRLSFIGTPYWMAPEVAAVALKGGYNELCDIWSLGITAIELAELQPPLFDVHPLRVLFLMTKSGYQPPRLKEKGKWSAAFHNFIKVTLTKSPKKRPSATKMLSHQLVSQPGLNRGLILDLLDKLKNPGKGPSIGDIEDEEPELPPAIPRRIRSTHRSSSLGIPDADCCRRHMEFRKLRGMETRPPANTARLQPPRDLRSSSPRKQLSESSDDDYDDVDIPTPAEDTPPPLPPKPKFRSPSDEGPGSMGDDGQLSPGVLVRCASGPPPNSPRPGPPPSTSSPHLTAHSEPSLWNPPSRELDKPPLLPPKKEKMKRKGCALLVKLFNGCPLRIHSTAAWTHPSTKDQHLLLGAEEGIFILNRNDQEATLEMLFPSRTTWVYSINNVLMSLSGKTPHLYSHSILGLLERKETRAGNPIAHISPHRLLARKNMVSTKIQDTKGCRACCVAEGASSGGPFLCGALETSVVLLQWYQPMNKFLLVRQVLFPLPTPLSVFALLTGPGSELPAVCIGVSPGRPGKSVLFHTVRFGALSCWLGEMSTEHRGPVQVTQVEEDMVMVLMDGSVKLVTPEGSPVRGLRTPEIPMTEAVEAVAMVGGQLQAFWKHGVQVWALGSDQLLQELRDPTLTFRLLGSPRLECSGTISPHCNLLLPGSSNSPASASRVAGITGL
Type: biochemical
Procedure: The Lantha screen assay is used to evaluate the inhibitory effect of the compounds on HPK1 kinase. • a) Kinase buffer: 50 mM HEPES (pH 7.5), 10 mM MgCl2, 4 mM DTT, 0.01% Tween-20, 0.01% BSA. • b) Compound Preparation: The compound is diluted with DMSO, and the initial detection concentration of the compound is 1 µM and is diluted to the corresponding concentration. • c) Kinase response and termination: A kinase solution is prepared by adding kinase buffer, the kinase solution and the compound are added to the test plate to be incubated at room temperature for 10 minutes. Fluorescein-PKC and ATP are added to the kinase buffer to form a substrate solution, and 5 µl of the substrate solution is added to the test plate to start the reaction to be incubated at room temperature for 90 minutes; then, 10 µl of a mixture of antibody and EDTA is added to terminate the reaction to be incubated at room temperature for 60 minutes. • d) The date is read by Envision instrument to plot a curve with the Log concentration of the inhibitor as the X-axis and the inhibition rate as the Y-axis, and then the formula Y=Bottom + (Top-Bottom)/(1+(IC50/X)^HillSlope) is used to obtain IC50. Table 1 Inhibitory activity the compounds of the invention on HPK1 kinase
Compound `Cc1cc(-c2cnc3[nH]cc(-c4ccc(C(=O)N(C)C)cc4)c3n2)cc(C)c1C1=CCN(CC2CN(C3=CC(=O)N(C4CCC(=O)NC4=O)C3=O)C2)CC1` (centres unmarked) [compound 088] has an IC50 of less than 0.01 µM.
In the case of `Cc1cc(-c2cnc3[nH]cc(-c4ccc(C(=O)N(C)C)cc4)c3n2)cc(C)c1C1=CCN(CC2CN(c3ccc(NC4CCC(=O)NC4=O)nc3)C2)CC1` (centres unmarked) [compound 087], the IC50 is reported as less than 0.01 µM.
Work on `Cc1cc(-c2cnc3[nH]cc(-c4ccc(C(=O)N(C)C)cc4)c3n2)cc(C)c1C1=CCN(CC(=O)Cc2ccc(C3CCC(=O)NC3=O)c(F)c2)CC1` (centres unmarked) [compound 006] yielded an IC50 of less than 0.01 µM.
`Cc1cc(-c2cnc3[nH]cc(-c4ccc(C(=O)N(C)C)cc4)c3n2)cc(C)c1C1=CCN(CC2CCN(c3ccc(C(=O)NC4CCC(=O)NC4=O)cc3)CC2)CC1` (centres unmarked) [compound 065] showed an IC50 of less than 0.01 µM.
With `Cc1cc(-c2cnc3[nH]cc(-c4ccc(C(=O)N(C)C)cc4)c3n2)cc(C)c1C1=CCN(CC2CCN(C(=O)c3ccc(Cl)c(N4CCC(=O)NC4=O)c3)CC2)CC1` [compound 120] the IC50 was less than 0.01 µM.
Compound `Cc1cc(-c2cnc3[nH]cc(-c4ccc(C(=O)N(C)C[C@H](C)O)cc4)c3n2)cc(C)c1C1=CCN(CC2CN(c3ccc(C(=O)NC4CCC(=O)NC4=O)cc3)C2)CC1` (some centres unmarked) [compound 032] has an IC50 of less than 0.01 µM.
`Cc1cc(-c2cnc3[nH]cc(-c4ccc(C(=O)N(C)C)cc4)c3n2)cc(C)c1C1=CCN(CC2CN(c3cccc4c(C5CCC(=O)NC5=O)coc34)C2)CC1` (centres unmarked) [compound 147] gave an IC50 of less than 0.01 µM.
With `Cc1cc(-c2cnc3[nH]cc(-c4ccc(C(=O)N(C)C)cc4)c3n2)cc(C)c1C1=CCN(CC#Cc2cccc3c2n(C)c(=O)n3C2CCC(=O)NC2=O)CC1` (centres unmarked) [compound 046] the IC50 was less than 0.01 µM.
`Cc1cc(-c2cnc3[nH]cc(-c4ccc(C(=O)N(C)C)cc4)c3n2)cc(C)c1C1=CCN(CC2CN(c3ccc(NC4CCC(=O)NC4=O)c(F)c3)C2)CC1` (centres unmarked) [compound 019] gave an IC50 of less than 0.01 µM.
For `Cc1cc(N2CCC(CN3CC=C(c4c(C)cc(-c5cnc6[nH]cc(-c7ccc(C(=O)N(C)C)cc7)c6n5)cc4C)CC3)C2)ccc1N1CCC(=O)NC1=O` (centres unmarked) [compound 123], the IC50 was less than 0.01 µM.
For `Cc1cc(-c2cnc3[nH]nc(-c4ccc(C(=O)N(C)C)cc4)c3c2)cc(C)c1C1=CCN(CC2CN(c3ncc(C(=O)NC4CCC(=O)NC4=O)o3)C2)CC1` (centres unmarked) [compound 077], the IC50 was less than 0.01 µM.
`Cc1cc(N2CC(CN3CC=C(c4c(C)cc(-c5cnc6[nH]cc(-c7ccc(C(=O)N(C)C)cc7)c6n5)cc4C)CC3)C2)ccc1NC1CCC(=O)NC1=O` (centres unmarked) [compound 021] showed an IC50 of less than 0.01 µM.
For `Cc1cc(-c2cnc3[nH]cc(-c4ccc(C(=O)N(C)C)cc4)c3n2)cc(C)c1C1=CCN(C2CC3(CCN(c4ccc(C5CCC(=O)NC5=O)c(F)c4)C3)C2)CC1` (centres unmarked) [compound 045], the IC50 was less than 0.01 µM.
`Cc1cc(N2CC(CN3CC=C(c4c(C)cc(-c5cnc(N)c(Oc6ccc(C(=O)N(C)C)cc6)n5)cc4C)CC3)C2)ccc1N1CCC(=O)NC1=O` [compound 091] showed an IC50 of less than 0.01 µM.
With `Cc1cc(-c2cnc3[nH]cc(-c4ccc(C(=O)N(C)C)cc4)c3n2)cc(C)c1C1=CCN(C2CN(C(=O)c3ccc(NC4CCC(=O)NC4=O)cc3)C2)CC1` (centres unmarked) [compound 020] the IC50 was less than 0.01 µM.
`Cc1cc(-c2cnc3[nH]cc(-c4ccc(C(=O)N(C)C)cc4)c3n2)cc(C)c1C1=CCN(CC2CN(c3ccc4c(=O)n(C5CCC(=O)NC5=O)ccc4c3)C2)CC1` (centres unmarked) [compound 084] showed an IC50 of less than 0.01 µM.
In the case of `Cc1cc(-c2cnc3[nH]nc(-c4ccc(C(=O)N(C)C)cc4)c3c2)cc(C)c1C1=CCN(C2CCN(c3ccc(C(=O)NC4CCC(=O)NC4=O)cn3)CC2)CC1` (centres unmarked) [compound 080], the IC50 is reported as less than 0.01 µM.
Work on `Cc1cc(N2CC(CN3CC=C(c4c(C)cc(-c5cnc6[nH]cc(-c7cccc(C#N)c7F)c6c5)cc4C)CC3)C2)ccc1N1CCC(=O)NC1=O` [compound 101] yielded an IC50 of less than 0.01 µM.
`Cc1cc(N2CC(CN3CC=C(c4c(C)cc(-c5cnc6[nH]cc(-c7cnn(C8CCN(C9CC9)CC8)c7)c6c5)cc4C)CC3)C2)ccc1N1CCC(=O)NC1=O` [compound 118] showed an IC50 of less than 0.01 µM.
For `Cc1cc(-c2cnc3[nH]cc(-c4ccc(C(=O)N(C)C)c5ccccc45)c3n2)cc(C)c1C1=CCN(C2CN(c3ncc(C(=O)NC4CCC(=O)NC4=O)o3)C2)CC1` (centres unmarked) [compound 064], the IC50 was less than 0.01 µM.
